Columns and labels:
[1] = Characterization of the CyNAMLA library (absorbance maximum wavelengths); type: physicochemical; conditions: absorbance maximum wavelength of CyNAMLA library compounds
Protocol: The amine group of 21 was protected using di-tert-butyl dicarbonate then derivatized with 80 different primary amines (for structures, see FIGS. 14A-14D). After acetylation of the newly-introduced amine, the compounds were treated with a solution of TFA-DCM (1:9) to remove the tert-butylcarbamate protecting group. The deprotected amine was then coupled to lipoic acid to yield CyNAMLA derivatives with an average purity of 90% (for HPLC-determined purities, see Table 6).

[2] = Primary screen of SERS intensities of CyNAMLA-functionalized AuNPs (compact Raman scanner); type: physicochemical; conditions: for Raman intensity: SERS spectra of CyNAMLA-functionalized AuNPs, excitation at 785 nm, laser power 60 mW
Protocol: FIG. 15 is a graph of the comparative surface-enhanced Raman spectroscopy (SERS) intensities of members of the CyNAMLA library measured with an excitation wavelength of 785 nm and a laser power of 60 mW in a compact Raman scanner.
The CyNAMLA compounds were adsorbed onto AuNPs having a diameter of approximately 60 nm, and the SERS properties of the resulting CyNAMLA-functionalized AuNPs were evaluated using a compact Raman scanner. Among metal nanoparticles, AuNPs are particularly suitable for in vivo applications due to their low toxicity, adaptability to bioconjugation, and reproducible signal intensity and quantification.

SMILES	λabs (max) [1] [nm]	Raman intensity [2]	SERS intensity compared to DTTC, primary screen ([2]; on AuNPs, 785 nm, 60 mW)
CCCCCCCCCCCCCN(C(C)=O)C1=C(/C=C/C2=[N+](CCCNC(=O)CCCCC3CCSS3)c3ccccc3C2(C)C)CCC/C1=C\C=C1\N(CCC)c2ccccc2C1(C)C.O=C([O-])C(F)(F)F (stereo not shown) [CyNAMLA-55]	805	1125	–
CCCN1/C(=C/C=C2\CCCC(/C=C/C3=[N+](CCCNC(=O)CCCCC4CCSS4)c4ccccc4C3(C)C)=C2N(Cc2ccccc2C)C(C)=O)C(C)(C)c2ccccc21.O=C([O-])C(F)(F)F (stereo not shown) [CyNAMLA-101]	803	2102	–
CCCN1/C(=C/C=C2\CCCC(/C=C/C3=[N+](CCCNC(=O)CCCCC4CCSS4)c4ccccc4C3(C)C)=C2N(Cc2ccccc2OCC)C(C)=O)C(C)(C)c2ccccc21.O=C([O-])C(F)(F)F (stereo not shown) [CyNAMLA-103]	806	6424	–
CCCN1/C(=C/C=C2\CCCC(/C=C/C3=[N+](CCCNC(=O)CCCCC4CCSS4)c4ccccc4C3(C)C)=C2N(C(C)=O)C2CCN(Cc3ccccc3)CC2)C(C)(C)c2ccccc21.O=C([O-])C(F)(F)F (stereo not shown) [CyNAMLA-107]	805	2397	–
CCCN1/C(=C/C=C2\CCCC(/C=C/C3=[N+](CCCNC(=O)CCCCC4CCSS4)c4ccccc4C3(C)C)=C2N(Cc2cccc(OC)c2OC)C(C)=O)C(C)(C)c2ccccc21.O=C([O-])C(F)(F)F (stereo not shown) [CyNAMLA-124]	804	2201	–
CCCN1/C(=C/C=C2\CCCC(/C=C/C3=[N+](CCCNC(=O)CCCCC4CCSS4)c4ccccc4C3(C)C)=C2N(C(C)=O)C2CCCCC2)C(C)(C)c2ccccc21.O=C([O-])C(F)(F)F (stereo not shown) [CyNAMLA-164]	803	4777	–
CCCN1/C(=C/C=C2\CCCC(/C=C/C3=[N+](CCCNC(=O)CCCCC4CCSS4)c4ccccc4C3(C)C)=C2N(C(C)=O)C2CCCC2)C(C)(C)c2ccccc21.O=C([O-])C(F)(F)F (stereo not shown) [CyNAMLA-180]	804	8236	–
CCCN1/C(=C/C=C2\CCCC(/C=C/C3=[N+](CCCNC(=O)CCCCC4CCSS4)c4ccccc4C3(C)C)=C2N(Cc2ccc(OC)cc2OC)C(C)=O)C(C)(C)c2ccccc21.O=C([O-])C(F)(F)F (stereo not shown) [CyNAMLA-181]	804	2109	–
CCCN1/C(=C/C=C2\CCCC(/C=C/C3=[N+](CCCNC(=O)CCCCC4CCSS4)c4ccccc4C3(C)C)=C2N(CCc2cccc(OC)c2OC)C(C)=O)C(C)(C)c2ccccc21.O=C([O-])C(F)(F)F (stereo not shown) [CyNAMLA-184]	803	24133	–
CCCC(C)N(C(C)=O)C1=C(/C=C/C2=[N+](CCCNC(=O)CCCCC3CCSS3)c3ccccc3C2(C)C)CCC/C1=C\C=C1\N(CCC)c2ccccc2C1(C)C.O=C([O-])C(F)(F)F (stereo not shown) [CyNAMLA-185]	805	4603	–
CCCN1/C(=C/C=C2\CCCC(/C=C/C3=[N+](CCCNC(=O)CCCCC4CCSS4)c4ccccc4C3(C)C)=C2N(Cc2ccc(F)cc2)C(C)=O)C(C)(C)c2ccccc21.O=C([O-])C(F)(F)F (stereo not shown) [CyNAMLA-218]	804	1922	–
CCCCC(CC)CN(C(C)=O)C1=C(/C=C/C2=[N+](CCCNC(=O)CCCCC3CCSS3)c3ccccc3C2(C)C)CCC/C1=C\C=C1\N(CCC)c2ccccc2C1(C)C.O=C([O-])C(F)(F)F (stereo not shown) [CyNAMLA-230]	804	4341	–
CCCN1/C(=C/C=C2\CCCC(/C=C/C3=[N+](CCCNC(=O)CCCCC4CCSS4)c4ccccc4C3(C)C)=C2N(Cc2cc(OC)cc(OC)c2)C(C)=O)C(C)(C)c2ccccc21.O=C([O-])C(F)(F)F (stereo not shown) [CyNAMLA-262]	805	27810	exceeded the signal of DTTC
CCCN1/C(=C/C=C2\CCCC(/C=C/C3=[N+](CCCNC(=O)CCCCC4CCSS4)c4ccccc4C3(C)C)=C2N(CCc2ccc(OC)c(OC)c2)C(C)=O)C(C)(C)c2ccccc21.O=C([O-])C(F)(F)F (stereo not shown) [CyNAMLA-266]	806	3013	–
CCCN1/C(=C/C=C2\CCCC(/C=C/C3=[N+](CCCNC(=O)CCCCC4CCSS4)c4ccccc4C3(C)C)=C2N(CCN2CCCCC2)C(C)=O)C(C)(C)c2ccccc21.O=C([O-])C(F)(F)F (stereo not shown) [CyNAMLA-272]	805	1986	–
CCCN1/C(=C/C=C2\CCCC(/C=C/C3=[N+](CCCNC(=O)CCCCC4CCSS4)c4ccccc4C3(C)C)=C2N(CCCOC(C)C)C(C)=O)C(C)(C)c2ccccc21.O=C([O-])C(F)(F)F (stereo not shown) [CyNAMLA-274]	806	6417	–
CCCN1/C(=C/C=C2\CCCC(/C=C/C3=[N+](CCCNC(=O)CCCCC4CCSS4)c4ccccc4C3(C)C)=C2N(C(C)=O)C(C)CCc2ccccc2)C(C)(C)c2ccccc21.O=C([O-])C(F)(F)F (stereo not shown) [CyNAMLA-275]	804	1408	–

SMILES	λabs (max) [1] [nm]	Raman intensity [2]	SERS intensity compared to DTTC, primary screen ([2]; on AuNPs, 785 nm, 60 mW)
CCCCCCCN(C(C)=O)C1=C(/C=C/C2=[N+](CCCNC(=O)CCCCC3CCSS3)c3ccccc3C2(C)C)CCC/C1=C\C=C1\N(CCC)c2ccccc2C1(C)C.O=C([O-])C(F)(F)F (stereo not shown) [CyNAMLA-277]	804	2046	–
CCCN1/C(=C/C=C2\CCCC(/C=C/C3=[N+](CCCNC(=O)CCCCC4CCSS4)c4ccccc4C3(C)C)=C2N(Cc2ccc(OC)c(OC)c2)C(C)=O)C(C)(C)c2ccccc21.O=C([O-])C(F)(F)F (stereo not shown) [CyNAMLA-319]	805	2850	–
CCCN1/C(=C/C=C2\CCCC(/C=C/C3=[N+](CCCNC(=O)CCCCC4CCSS4)c4ccccc4C3(C)C)=C2N(Cc2c(OC)cc(OC)cc2OC)C(C)=O)C(C)(C)c2ccccc21.O=C([O-])C(F)(F)F (stereo not shown) [CyNAMLA-336]	805	2548	–
CCCN1/C(=C/C=C2\CCCC(/C=C/C3=[N+](CCCNC(=O)CCCCC4CCSS4)c4ccccc4C3(C)C)=C2N(Cc2cccc(Br)c2)C(C)=O)C(C)(C)c2ccccc21.O=C([O-])C(F)(F)F (stereo not shown) [CyNAMLA-341]	804	1071	–
CCCN1/C(=C/C=C2\CCCC(/C=C/C3=[N+](CCCNC(=O)CCCCC4CCSS4)c4ccccc4C3(C)C)=C2N(Cc2cc(OC)c(OC)c(OC)c2)C(C)=O)C(C)(C)c2ccccc21.O=C([O-])C(F)(F)F (stereo not shown) [CyNAMLA-356]	806	2333	–
CCCN1/C(=C/C=C2\CCCC(/C=C/C3=[N+](CCCNC(=O)CCCCC4CCSS4)c4ccccc4C3(C)C)=C2N(Cc2ccc(OC)cc2OC)C(C)=O)C(C)(C)c2ccccc21.O=C([O-])C(F)(F)F (stereo not shown) [CyNAMLA-358]	804	1121	–
CCCCN(C(C)=O)C1=C(/C=C/C2=[N+](CCCNC(=O)CCCCC3CCSS3)c3ccccc3C2(C)C)CCC/C1=C\C=C1\N(CCC)c2ccccc2C1(C)C.O=C([O-])C(F)(F)F (stereo not shown) [CyNAMLA-373]	804	2487	–
CCCN1/C(=C/C=C2\CCCC(/C=C/C3=[N+](CCCNC(=O)CCCCC4CCSS4)c4ccccc4C3(C)C)=C2N(CC2CCCCC2)C(C)=O)C(C)(C)c2ccccc21.O=C([O-])C(F)(F)F (stereo not shown) [CyNAMLA-382]	804	7947	–
CCCN1/C(=C/C=C2\CCCC(/C=C/C3=[N+](CCCNC(=O)CCCCC4CCSS4)c4ccccc4C3(C)C)=C2N(Cc2cccc(OC)c2)C(C)=O)C(C)(C)c2ccccc21.O=C([O-])C(F)(F)F (stereo not shown) [CyNAMLA-387]	804	3910	–
CCCN1/C(=C/C=C2\CCCC(/C=C/C3=[N+](CCCNC(=O)CCCCC4CCSS4)c4ccccc4C3(C)C)=C2N(CCc2ccc(OC)cc2)C(C)=O)C(C)(C)c2ccccc21.O=C([O-])C(F)(F)F (stereo not shown) [CyNAMLA-395]	805	1876	–
CCCN1/C(=C/C=C2\CCCC(/C=C/C3=[N+](CCCNC(=O)CCCCC4CCSS4)c4ccccc4C3(C)C)=C2N(Cc2cccc(C)c2)C(C)=O)C(C)(C)c2ccccc21.O=C([O-])C(F)(F)F (stereo not shown) [CyNAMLA-398]	805	2629	–
CCCN1/C(=C/C=C2\CCCC(/C=C/C3=[N+](CCCNC(=O)CCCCC4CCSS4)c4ccccc4C3(C)C)=C2N(Cc2ccccn2)C(C)=O)C(C)(C)c2ccccc21.O=C([O-])C(F)(F)F (stereo not shown) [CyNAMLA-401]	804	2920	–
CCCN1/C(=C/C=C2\CCCC(/C=C/C3=[N+](CCCNC(=O)CCCCC4CCSS4)c4ccccc4C3(C)C)=C2N(CCc2cccc(F)c2)C(C)=O)C(C)(C)c2ccccc21.O=C([O-])C(F)(F)F (stereo not shown) [CyNAMLA-405]	805	12149	–
CCCCCCCCCCN(C(C)=O)C1=C(/C=C/C2=[N+](CCCNC(=O)CCCCC3CCSS3)c3ccccc3C2(C)C)CCC/C1=C\C=C1\N(CCC)c2ccccc2C1(C)C.O=C([O-])C(F)(F)F (stereo not shown) [CyNAMLA-407]	806	3000	–
CCCN1/C(=C/C=C2\CCCC(/C=C/C3=[N+](CCCNC(=O)CCCCC4CCSS4)c4ccccc4C3(C)C)=C2N(CCCN(C)C)C(C)=O)C(C)(C)c2ccccc21.O=C([O-])C(F)(F)F (stereo not shown) [CyNAMLA-427]	805	1735	–
CCCN1/C(=C/C=C2\CCCC(/C=C/C3=[N+](CCCNC(=O)CCCCC4CCSS4)c4ccccc4C3(C)C)=C2N(CCc2ccccc2F)C(C)=O)C(C)(C)c2ccccc21.O=C([O-])C(F)(F)F (stereo not shown) [CyNAMLA-477]	804	9679	–
